The results in this text go back to paper PMC6934184, “Selective DNA-PKcs inhibition extends the therapeutic index of localized radiotherapy and chemotherapy” (The Journal of Clinical Investigation, 2019).

This experiment addresses T1, KIT D816V (Homo sapiens, UniProt P10721, D816V).
T1 construct: purchased Thermo Fisher Scientific (Life Technologies) SelectScreen
The experiment is described as follows: SelectScreen LanthaScreen. The class given is binding. The conditions noted are these: read-out: % displacement. The essentials:
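NU5455 was profiled across the SelectScreen Broad panel of kinase activity and binding assays. Z'LYTE reactions such as CSF1R ran at apparent Km ATP, while the Adapta CAMK1 assay used ATP listed as 10. Values are given as percent.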

T1 sequence (P10721 26-976 D816V): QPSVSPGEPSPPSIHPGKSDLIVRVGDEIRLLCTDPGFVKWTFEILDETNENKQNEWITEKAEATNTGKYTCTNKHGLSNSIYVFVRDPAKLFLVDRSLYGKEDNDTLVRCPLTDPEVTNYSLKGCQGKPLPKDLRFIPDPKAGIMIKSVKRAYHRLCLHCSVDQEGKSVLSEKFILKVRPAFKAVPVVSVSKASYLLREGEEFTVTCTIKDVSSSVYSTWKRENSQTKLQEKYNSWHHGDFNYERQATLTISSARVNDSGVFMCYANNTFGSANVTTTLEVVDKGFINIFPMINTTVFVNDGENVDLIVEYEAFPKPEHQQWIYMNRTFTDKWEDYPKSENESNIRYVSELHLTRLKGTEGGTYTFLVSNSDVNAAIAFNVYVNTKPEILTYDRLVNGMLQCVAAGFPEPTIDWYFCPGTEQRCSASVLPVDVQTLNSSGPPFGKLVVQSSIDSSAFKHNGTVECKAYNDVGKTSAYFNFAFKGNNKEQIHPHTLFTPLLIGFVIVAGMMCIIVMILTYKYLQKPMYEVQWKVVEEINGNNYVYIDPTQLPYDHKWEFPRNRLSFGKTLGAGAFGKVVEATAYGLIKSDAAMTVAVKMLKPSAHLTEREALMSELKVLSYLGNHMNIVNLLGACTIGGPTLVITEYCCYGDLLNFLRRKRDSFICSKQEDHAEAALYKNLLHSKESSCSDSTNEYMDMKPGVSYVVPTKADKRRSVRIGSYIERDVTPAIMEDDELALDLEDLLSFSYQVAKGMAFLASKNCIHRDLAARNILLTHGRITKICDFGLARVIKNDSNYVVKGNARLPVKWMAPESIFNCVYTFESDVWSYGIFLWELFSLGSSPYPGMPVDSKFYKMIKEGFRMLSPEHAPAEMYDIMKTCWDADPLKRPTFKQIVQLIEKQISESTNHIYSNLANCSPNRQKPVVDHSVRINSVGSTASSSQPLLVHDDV

With `CN(C(=O)CN1CCOCC1)c1ccc2sc3c(-c4cccc5c(=O)cc(N6CC7CCC(C6)O7)oc45)cccc3c2c1` [NU5455], the inhibition at 1 µM came to 0.9%.
